Source: patent US7022696B2, “Piperazino-derivatives and their use as PDE4 inhibitor” (Altana Pharma AG, priority 2001, dated 2006)

| Compound | melting point |
| --- | --- |
| CCOc1ccc(C2=NN(c3ccc(C(=O)N4CCN(CCN5CCOCC5)CC4)cc3)C(=O)[C@@H]3CC=CC[C@H]23)cc1OCC.Cl.Cl | 255 °C (dec.) |
| CCOc1ccc(C2=NN(c3ccc(C(=O)N4CCN(c5nc(-c6ccccc6)ns5)CC4)cc3)C(=O)[C@@H]3CC=CC[C@H]23)cc1OCC [Compound 17, (4aS,8aR)-4-(3,4-Diethoxyphenyl)-2-(4-{1-[4-(3-phenyl-1,2,4-thiadiazol-5-yl)-piperazin-1-yl]-methanoyl}-phenyl)-4a,5,8,8a-tetrahydro-2H-phthalazin-1-one] | 168 to 169 °C |
| COc1ccc(C2=NN(Cc3ccc(C(=O)N4CCN(c5cnccn5)CC4)cc3)C(=O)[C@H]3CC=CC[C@@H]23)c2c1OC(C)(C)C2.Cl.Cl (relative stereo) | 124 to 126 °C |
| CCOc1ccc(C2=NN(c3ccc(C(=O)N4CCN(CCCN5CCOCC5)CC4)cc3)C(=O)[C@@H]3CC=CC[C@H]23)cc1OCC.Cl.Cl [Compound 22, (4aS,8aR)-4-(3,4-Diethoxy-phenyl)-2-(4-{1-[4-(3-morpholin-4-yl-propyl)-piperazin-1-yl]-methanoyl}-phenyl)-4a,5,8,8a-tetrahydro-2H-phthalazin-1-one dihydrochloride] | 170 to 171 °C |
| COc1ccc(C2=NN(c3ccc(C(=O)N4CCN(CCN5CCOCC5)CC4)cc3)C(=O)[C@@H]3CC=CC[C@H]23)c2c1OC(C)(C)C2.Cl.Cl [Compound 20, (4aS,8aR)-4-(7-Methoxy-2,2-dimethyl-2,3-dihydro-benzofuran-4-yl)-2-(4-{1-[4-(2-morpholin-4-yl-ethyl)-piperazin-1-yl]-methanoyl}-phenyl)-4a,5,8,8a-tetrahydro-2H-phthalazin-1-one dihydrochloride] | 271 °C (dec.) |
| CCOc1ccc(C2=NN(c3ccc(C(=O)N4CCN(CC5CCCO5)CC4)cc3)C(=O)[C@@H]3CC=CC[C@H]23)cc1OCC.Cl (stereo partly drawn) [Compound 23, (4aS,8aR)-4-(3,4-Diethoxy-phenyl)-2-(4-{1-[4-(tetrahydro-furan-2-ylmethyl)-piperazin-1-yl]-methanoyl}-phenyl)-4a,5,8,8a-tetrahydro-2H-phthalazin-1-one hydrochloride] | 131 to 133 °C |
| CCOc1ccc(C2=NN(c3ccc(C(=O)N4CCN(c5cccc6[nH]ccc56)CC4)cc3)C(=O)[C@@H]3CC=CC[C@H]23)cc1OCC.Cl [Compound 21, (4aS,8aR)-4-(3,4-Diethoxy-phenyl)-2-(4-{1-[4-(1H-indol-4-yl)-piperazin-1-yl]-methanoyl}-phenyl)-4a,5,8,8a-tetrahydro-2H-phthalazin-1-one hydrochloride] | 142 to 145 °C |
| CCOc1ccc(C2=NN(c3ccc(S(=O)(=O)N4CCN(c5ccccn5)CC4)cc3)C(=O)[C@H]3CC=CC[C@@H]23)cc1OCC (relative stereo) [Compound 6, (cis)-4-(3,4-Diethoxyphenyl)-2-[4-(4-pyridin-2-yl-piperazine-1-sulfonyl)-phenyl]-4a,5,8,8a-tetrahydro-2H-phthalazin-1-one] | 181 to 182 °C |
| CCOc1ccc(C2=NN(c3ccc(C(=O)N4CCN(CCN5CCCC5)CC4)cc3)C(=O)[C@@H]3CC=CC[C@H]23)cc1OCC.Cl.Cl [Compound 24, (4aS,8aR)-4-(3,4-Diethoxy-phenyl)-2-(4-{1-[4-(2-pyrrolidin-1-yl-ethyl)-piperazin-1-yl]-methanoyl}-phenyl)-4a,5,8,8a-tetrahydro-2H-phthalazin-1-one dihydrochloride] | 185 to 186 °C |
| COc1ccc(C2=NN(Cc3ccc(C(=O)N4CCN(CCN5CCOCC5)CC4)cc3)C(=O)[C@H]3CC=CC[C@@H]23)c2c1OC(C)(C)C2.Cl.Cl (relative stereo) | 210 to 211 °C |
| COc1ccc(C2=NN(c3ccc(C(=O)N4CCN(c5nc(-c6ccccc6C)ns5)CC4)cc3)C(=O)[C@@H]3CC=CC[C@H]23)cc1OC.Cl [Compound 19, (4aS,8aR)-4-(3,4-Dimethoxyphenyl)-2-(4-{1-[4-(3-o-tolyl-1,2,4-thiadiazol-5-yl)-piperazin-1-yl]-methanoyl}-phenyl)-4a,5,8,8a-tetrahydro-2H-phthalazin-1-one hydrochloride] | 115 to 118 °C |
| CCOc1ccc(C2=NN(c3ccc(C(=O)N4CCN(c5ccccc5)CC4)cc3)C(=O)[C@@H]3CC=CC[C@H]23)cc1OCC.Cl | 146 to 147 °C |
| CCOc1ccc(C2=NN(c3ccc(C(=O)N4CCN(c5cc(C)nc6ccccc56)CC4)cc3)C(=O)[C@@H]3CC=CC[C@H]23)cc1OCC.Cl [Compound 26, (4aS,8aR)-4-(3,4-Diethoxy-phenyl)-2-(4-{1-[4-(2-methyl-quinolin-4-yl)-piperazin-1-yl]-methanoyl}-phenyl)-4a,5,8,8a-tetrahydro-2H-phthalazin-1-one hydrochloride] | 203 to 206 °C (dec.) |
| COc1ccc(C2=NN(c3ccc(C(=O)N4CCN(CC(=O)N(C)C)CC4)cc3)C(=O)[C@@H]3CC=CC[C@H]23)cc1OC.Cl | 93 to 94 °C |
| CCOc1ccc(C2=NN(c3ccc(C(=O)N4CCN(C(=O)c5ccco5)CC4)cc3)C(=O)[C@@H]3CC=CC[C@H]23)cc1OCC [Compound 4, (4aS,8aR)-4-(3,4-Diethoxyphenyl)-2-(4-{1-[4-(1-furan-2-yl-methanoyl)-piperazin-1-yl]-methanoyl}-phenyl)-4a,5,8,8a-tetrahydro-2H-phthalazin-1-one] | 114 to 115 °C |
| CCOC(=O)N1CCN(C(=O)c2ccc(N3N=C(c4ccc(OCC)c(OCC)c4)[C@H]4CC=CC[C@H]4C3=O)cc2)CC1 [Compound 7, 4-(1-{4-[(4aS,8aR)-4-(3,4-Diethoxyphenyl)-1-oxo-4a,5,8,8a-tetrahydro-1H-phthalazin-2-yl]-phenyl}-methanoyl)-piperazine-1-carboxylic acid ethyl ester] | 146 to 147 °C |
